Reference: patent US8962596B2 (Array BioPharma Inc., priority 2010, dated 2015)

Assays:
Type in all cases: biochemical
[1] = biological target: T1, Human Tyk2 kinase domain (Homo sapiens, UniProt P29597); experiment: Tyk2 Inhibition Assay (Omnia kinase fluorescence peptide substrate assay); conditions: averaged IC50 ranges; assay of Example A; 10 μM (Km app) or 1 mM ATP, 2 nM Tyk2
T1 construct: comprising amino acids 886 to 1187 with 10 additional histidine residues; 10xHis (histidine tag) (C, cleaved yes); made in house
T1 sequence (P29597 886-1187): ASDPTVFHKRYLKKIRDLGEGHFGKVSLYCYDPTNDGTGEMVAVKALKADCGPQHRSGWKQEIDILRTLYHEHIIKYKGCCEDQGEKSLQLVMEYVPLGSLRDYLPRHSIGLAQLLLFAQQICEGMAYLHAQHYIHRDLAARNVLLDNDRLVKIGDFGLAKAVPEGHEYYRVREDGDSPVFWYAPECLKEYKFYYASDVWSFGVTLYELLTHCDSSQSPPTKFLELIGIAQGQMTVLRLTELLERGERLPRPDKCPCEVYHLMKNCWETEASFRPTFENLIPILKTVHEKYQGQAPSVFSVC
Outline: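 2 nM His-tag-cleaved kinase domain (aa 886–1187) with 8 μM Omnia Y12 peptide, 10 μM (Km app) or 1 mM ATP, pH 7.4 HEPES/10 mM MgCl2, 2% DMSO. Fluorescence (ex 360/em 485 nm) every 50 s for 45 min; IC50 from 4-parameter fit of POC, top dose 10 μM.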

[2] = biological target: T2, JAK1 (Homo sapiens, UniProt P23458); experiment: JAK1 Inhibition Assay (Omnia kinase fluorescence peptide substrate assay); conditions: averaged IC50 ranges; assay of Example B; 40 μM (Km app) or 1 mM ATP, 15 nM JAK1
T2 construct: purchased Invitrogen Corporation, Carlsbad, Calif; PV4775

[3] = biological target: T3, JAK2 (Homo sapiens, UniProt O60674); experiment: JAK2 Inhibition Assay (Omnia kinase fluorescence peptide substrate assay); conditions: averaged IC50 ranges; assay of Example C; 25 μM (Km app) or 1 mM ATP, 5 nM JAK2
T3 construct: purchased Invitrogen Corporation, Carlsbad, Calif; PV4288
Outline: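 5 nM JAK2 phosphorylated 10 μM Omnia Y7 peptide with ATP at 25 μM (Km app) or 1 mM, in 25 mM HEPES pH 7.4, 10 mM MgCl2, 0.01% Triton X-100, 1 mM DTT, 2% DMSO. Fluorescence (360/485 nm) was read every 50 s for 45 min. 10-point 3-fold series from 10 μM; POC versus uninhibited and background controls, 4-parameter logistic IC50.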

[4] = biological target: T4, JAK3 (Homo sapiens, UniProt P52333); experiment: JAK3 Inhibition Assay (Omnia kinase fluorescence peptide substrate assay); conditions: averaged IC50 ranges; assay of Example D; 10 μM (Km app) or 1 mM ATP, 2.5 nM JAK3
T4 construct: purchased Invitrogen Corporation, Carlsbad, Calif; PV4080
T4 sequence (P52333 1-1124): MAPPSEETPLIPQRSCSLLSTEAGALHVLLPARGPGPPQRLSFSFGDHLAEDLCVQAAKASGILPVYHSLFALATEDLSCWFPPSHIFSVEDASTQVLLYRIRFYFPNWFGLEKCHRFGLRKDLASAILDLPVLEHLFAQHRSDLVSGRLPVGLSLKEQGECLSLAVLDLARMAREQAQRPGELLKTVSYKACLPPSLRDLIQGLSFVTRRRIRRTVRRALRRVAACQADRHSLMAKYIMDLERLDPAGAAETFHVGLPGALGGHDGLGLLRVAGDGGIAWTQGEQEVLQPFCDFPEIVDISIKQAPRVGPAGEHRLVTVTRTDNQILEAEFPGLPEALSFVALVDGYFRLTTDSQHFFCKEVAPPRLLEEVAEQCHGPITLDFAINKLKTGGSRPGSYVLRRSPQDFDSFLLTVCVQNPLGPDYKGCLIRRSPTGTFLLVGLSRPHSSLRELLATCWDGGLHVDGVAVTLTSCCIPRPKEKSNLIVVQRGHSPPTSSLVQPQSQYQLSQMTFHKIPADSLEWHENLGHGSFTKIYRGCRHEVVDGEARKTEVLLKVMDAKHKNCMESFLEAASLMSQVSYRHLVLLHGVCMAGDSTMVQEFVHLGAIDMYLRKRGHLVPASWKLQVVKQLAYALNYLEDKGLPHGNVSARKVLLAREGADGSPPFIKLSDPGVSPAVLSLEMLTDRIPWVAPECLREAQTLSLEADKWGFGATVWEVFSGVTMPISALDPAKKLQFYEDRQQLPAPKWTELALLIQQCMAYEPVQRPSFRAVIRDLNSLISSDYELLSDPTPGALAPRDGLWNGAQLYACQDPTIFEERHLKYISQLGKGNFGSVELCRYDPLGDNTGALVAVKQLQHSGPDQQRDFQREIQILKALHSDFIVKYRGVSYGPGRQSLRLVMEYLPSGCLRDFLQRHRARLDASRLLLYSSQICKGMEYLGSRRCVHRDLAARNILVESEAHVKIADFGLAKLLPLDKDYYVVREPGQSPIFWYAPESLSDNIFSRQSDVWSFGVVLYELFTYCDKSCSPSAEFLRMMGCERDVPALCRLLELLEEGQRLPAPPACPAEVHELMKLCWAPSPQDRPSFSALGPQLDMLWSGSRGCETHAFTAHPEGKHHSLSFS
Outline: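 Kinase at 2.5 nM with 10 µM Omnia Y7 peptide and 10 µM (Km app) or 1 mM ATP in 25 mM HEPES pH 7.4, 10 mM MgCl2, 1 mM DTT, 0.01% Triton X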

T3 sequence (O60674 whole entry): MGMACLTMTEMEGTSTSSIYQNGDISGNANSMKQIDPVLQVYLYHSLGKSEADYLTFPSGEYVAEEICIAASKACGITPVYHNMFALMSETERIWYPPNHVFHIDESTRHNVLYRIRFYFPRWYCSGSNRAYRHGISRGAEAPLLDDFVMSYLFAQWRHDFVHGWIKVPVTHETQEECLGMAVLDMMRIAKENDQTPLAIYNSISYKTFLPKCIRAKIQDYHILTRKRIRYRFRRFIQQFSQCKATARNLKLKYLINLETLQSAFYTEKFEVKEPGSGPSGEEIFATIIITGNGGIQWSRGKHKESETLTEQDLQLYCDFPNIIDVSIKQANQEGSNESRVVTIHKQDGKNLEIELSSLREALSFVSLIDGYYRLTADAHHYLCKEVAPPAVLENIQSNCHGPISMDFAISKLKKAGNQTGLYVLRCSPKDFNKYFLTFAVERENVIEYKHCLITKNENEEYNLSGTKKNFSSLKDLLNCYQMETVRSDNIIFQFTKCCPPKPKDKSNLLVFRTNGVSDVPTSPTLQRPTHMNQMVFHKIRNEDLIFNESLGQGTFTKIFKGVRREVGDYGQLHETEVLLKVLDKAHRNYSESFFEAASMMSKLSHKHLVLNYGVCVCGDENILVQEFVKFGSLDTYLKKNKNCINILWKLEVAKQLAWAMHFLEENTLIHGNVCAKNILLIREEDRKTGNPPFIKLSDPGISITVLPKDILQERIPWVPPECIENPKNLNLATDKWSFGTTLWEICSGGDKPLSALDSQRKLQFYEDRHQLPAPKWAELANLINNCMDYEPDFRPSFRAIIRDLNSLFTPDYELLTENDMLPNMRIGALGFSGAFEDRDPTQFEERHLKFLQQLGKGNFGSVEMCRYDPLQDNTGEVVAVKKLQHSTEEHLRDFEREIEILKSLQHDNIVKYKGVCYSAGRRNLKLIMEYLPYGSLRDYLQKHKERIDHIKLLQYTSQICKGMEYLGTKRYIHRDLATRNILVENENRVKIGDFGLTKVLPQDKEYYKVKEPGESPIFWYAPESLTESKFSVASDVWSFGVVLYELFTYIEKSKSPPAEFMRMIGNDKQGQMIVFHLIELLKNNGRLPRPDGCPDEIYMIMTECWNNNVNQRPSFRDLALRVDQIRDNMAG
T2 sequence (P23458 whole entry): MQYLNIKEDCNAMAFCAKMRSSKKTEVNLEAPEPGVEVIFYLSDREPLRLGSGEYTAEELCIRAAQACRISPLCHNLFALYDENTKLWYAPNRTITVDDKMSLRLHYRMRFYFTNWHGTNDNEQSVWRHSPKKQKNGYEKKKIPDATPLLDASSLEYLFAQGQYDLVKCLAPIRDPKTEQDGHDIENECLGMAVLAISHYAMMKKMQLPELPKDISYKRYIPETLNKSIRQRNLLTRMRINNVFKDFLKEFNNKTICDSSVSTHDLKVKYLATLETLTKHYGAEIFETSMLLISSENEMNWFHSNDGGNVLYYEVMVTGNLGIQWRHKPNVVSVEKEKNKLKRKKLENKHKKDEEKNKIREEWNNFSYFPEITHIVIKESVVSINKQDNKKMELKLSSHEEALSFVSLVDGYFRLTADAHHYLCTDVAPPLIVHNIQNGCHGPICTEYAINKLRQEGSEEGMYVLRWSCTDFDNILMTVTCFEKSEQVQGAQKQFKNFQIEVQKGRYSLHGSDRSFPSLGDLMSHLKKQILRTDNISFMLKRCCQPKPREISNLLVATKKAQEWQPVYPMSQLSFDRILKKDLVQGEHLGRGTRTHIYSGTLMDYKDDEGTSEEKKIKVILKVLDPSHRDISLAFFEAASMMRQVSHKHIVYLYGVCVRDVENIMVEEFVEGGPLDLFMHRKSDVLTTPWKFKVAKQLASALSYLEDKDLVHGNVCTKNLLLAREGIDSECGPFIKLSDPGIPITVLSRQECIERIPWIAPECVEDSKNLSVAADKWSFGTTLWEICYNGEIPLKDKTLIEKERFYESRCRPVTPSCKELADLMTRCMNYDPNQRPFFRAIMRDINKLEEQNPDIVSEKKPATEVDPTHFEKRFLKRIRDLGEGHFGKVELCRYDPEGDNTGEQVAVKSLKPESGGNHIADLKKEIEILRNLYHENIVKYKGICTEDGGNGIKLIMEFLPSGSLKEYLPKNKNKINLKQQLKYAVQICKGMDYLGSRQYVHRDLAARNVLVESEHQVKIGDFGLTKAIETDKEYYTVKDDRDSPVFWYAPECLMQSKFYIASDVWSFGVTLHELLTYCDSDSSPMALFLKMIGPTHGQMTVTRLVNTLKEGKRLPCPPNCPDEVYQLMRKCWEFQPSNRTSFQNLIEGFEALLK

IC50 [1] [nM]	IC50 [2] [nM]	IC50 [3] [nM]	IC50 [4] [nM]	Compound
10 to 100	100 to 1000	100 to 1000	> 1000	Cc1ccc(-c2cc3nccn3c(-c3cnn(C(CC#N)C4CC4)c3)n2)cn1 (centres unmarked) [Example 49, 3-Cyclopropyl-3-(4-(7-(6-methylpyridin-3-yl)imidazo[1,2-c]pyrimidin-5-yl)-1H-pyrazol-1-yl)propanenitrile]
< 10	100 to 1000	10 to 100	100 to 1000	CCn1cc(-c2cc3nccn3c(-c3cnn(C(CC#N)C4CC4)c3)n2)cn1 (centres unmarked) [Example 40, 3-cyclopropyl-3-(4-(7-(1-ethyl-1H-pyrazol-4-yl)imidazo[1,2-c]pyrimidin-5-yl)-1H-pyrazol-1-yl)propanenitrile]
10 to 100	> 1000	100 to 1000	> 1000	Cn1cc(-c2cc3nccn3c(-c3ccn(C4(CC#N)CN(CC(F)(F)F)C4)n3)n2)cn1 [Example 131, 2-(3-(3-(7-(1-Methyl-1H-pyrazol-4-yl)imidazo[1,2-c]pyrimidin-5-yl)-1H-pyrazol-1-yl)-1-(2,2,2-trifluoroethyl)azetidin-3-yl)acetonitrile]
10 to 100	100 to 1000	100 to 1000	> 1000	Cn1cc(-c2cc3nccn3c(-c3cnn(C4(CC#N)CCN(CC(F)(F)F)CC4)c3)n2)cn1 [Example 31, 2-(4-(4-(7-(1-methyl-1H-pyrazol-4-yl)imidazo[1,2-c]pyrimidin-5-yl)-1H-pyrazol-1-yl)-1-(2,2,2-trifluoroethyl)piperidin-4-yl)acetonitrile]
10 to 100	100 to 1000	100 to 1000	> 1000	CC(C)(CC#N)n1cc(-c2nc(-c3ccc(N4CCOCC4)cc3)cc3nccn23)cn1 [Example 116, 3-methyl-3-(4-(7-(4-morpholinophenyl)imidazo[1,2-c]pyrimidin-5-yl)-1H-pyrazol-1-yl)butanenitrile]
10 to 100	> 1000	100 to 1000	> 1000	CC(C)N1CC(CC#N)(n2cc(-c3nc(-c4cnn(C)c4)cc4nccn34)cn2)C1 [Example 82, 2-(1-isopropyl-3-(4-(7-(1-methyl-1H-pyrazol-4-yl)imidazo[1,2-c]pyrimidin-5-yl)-1H-pyrazol-1-yl)azetidin-3-yl)acetonitrile]
10 to 100	100 to 1000	100 to 1000	> 1000	Cn1cc(-c2cc3nccn3c(-c3cnn(C4(CC#N)CCCC4)c3)n2)cn1 [Example 23, 2-(1-(4-(7-(1-methyl-1H-pyrazol-4-yl)imidazo[1,2-c]pyrimidin-5-yl)-1H-pyrazol-1-yl)cyclopentyl)acetonitrile]
< 10	10 to 100	10 to 100	100 to 1000	Cn1cc(-c2cc3nccn3c(-c3cnn(C4(CC#N)CN(CC(F)(F)C(F)(F)F)C4)c3)n2)cn1 [Example 70, 2-(3-(4-(7-(1-Methyl-1H-pyrazol-4-yl)imidazo[1,2-c]pyrimidin-5-yl)-1H-pyrazol-1-yl)-1-(2,2,3,3,3-pentafluoropropyl)azetidin-3-yl)acetonitrile]
100 to 1000	> 1000	> 1000	> 1000	Cn1cc(-c2cc3nccn3c(-c3cnn(C4(CC#N)CN(CC5CCOCC5)C4)c3)n2)cn1 [Example 89, 2-(3-(4-(7-(1-methyl-1H-pyrazol-4-yl)imidazo[1,2-c]pyrimidin-5-yl)-1H-pyrazol-1-yl)-1-((tetrahydro-2H-pyran-4-yl)methyl)azetidin-3-yl)acetonitrile]
10 to 100	100 to 1000	10 to 100	> 1000	CC(C)OCCn1cc(-c2cc3nccn3c(-c3cnn(C(CC#N)C4CC4)c3)n2)cn1 (centres unmarked) [Example 41, 3-cyclopropyl-3-(4-(7-(1-(2-isopropoxyethyl)-1H-pyrazol-4-yl)imidazo[1,2-c]pyrimidin-5-yl)-1H-pyrazol-1-yl]propanenitrile]
< 10	100 to 1000	10 to 100	> 1000	Cn1cc(-c2cc3nccn3c(-c3ccn(C4(CC#N)CN(CC(F)(F)F)C4)c3)n2)cn1 [Example 128, 2-(3-(3-(7-(1-Methyl-1H-pyrazol-4-yl)imidazo[1,2-c]pyrimidin-5-yl)-1H-pyrrol-1-yl)-1-(2,2,2-trifluoroethyl)azetidin-3-yl)acetonitrile]
10 to 100	10 to 100	10 to 100	100 to 1000	CC(C#N)Cn1cc(-c2nc(-c3ccc(N4CCOCC4)cc3)cc3nccn23)cn1 (centres unmarked) [Example 119, 2-methyl-3-(4-(7-(4-morpholinophenyl)imidazo[1,2-c]pyrimidin-5-yl)-1H-pyrazol-1-yl)propanenitrile]
< 10	10 to 100	10 to 100	100 to 1000	CC(CC#N)n1cc(-c2nc(-c3ccc(N4CCOCC4)cc3)cc3nccn23)cn1 (centres unmarked) [Example 118, 3-(4-(7-(4-morpholinophenyl)imidazo[1,2-c]pyrimidin-5-yl)-1H-pyrazol-1-yl)butanenitrile]
< 10	10 to 100	100 to 1000	> 1000	N#CCC1(n2cc(-c3nc(-c4ccc(C(F)(F)F)cc4)cc4nccn34)cn2)CN(S(=O)(=O)C(F)(F)F)C1 [Example 146, 2-(3-(4-(7-(4-(trifluoromethyl)phenyl)imidazo[1,2-c]pyrimidin-5-yl)-1H-pyrazol-1-yl)-1-(trifluoromethylsulfonyl)azetidin-3-yl)acetonitrile]
< 10	10 to 100	10 to 100	> 1000	N#CCCn1cc(-c2nc(-c3ccc(N4CCOCC4)cc3)cc3nccn23)cn1 [Example 120, 3-(4-(7-(4-morpholinophen-yl)imidazo[1,2-c]pyrimidin-5-yl)-1H-pyrazol-1-yl)propanenitrile]
< 10	10 to 100	10 to 100	> 1000	COc1ccc(-c2cc3nccn3c(-c3cnn(C4(CC#N)CN(S(=O)(=O)C5CC5)C4)c3)n2)cc1 [Example 159, 2-(1-(cyclopropylsulfonyl)-3-(4-(7-(4-methoxyphenyl)imidazo[1,2-c]pyrimidin-5-yl)-1H-pyrazol-1-yl)azetidin-3-yl)acetonitrile]
10 to 100	10 to 100	10 to 100	100 to 1000	Cn1cc(-c2cc3nccn3c(-c3cnn(C4(CC#N)CN(C(=O)C5(C(F)(F)F)CC5)C4)c3)n2)cn1 [Example 65, 2-(3-(4-(7-(1-Methyl-1H-pyrazol-4-yl)imidazo[1,2-c]pyrimidin-5-yl)-1H-pyrazol-1-yl)-1-(1-(trifluoromethyl)cyclopropanecarbonyl)azetidin-3-yl)acetonitrile]
